Results: US20090082249A1, “NUTRITIONAL SUPPLEMENT FOR A CATEGORY OF HIV PATIENTS” (N.V. Nutricia, priority 2005, published 2009)

Tested on: intestinal tight junction permeability
Test: Inflammatory mediated intestinal tight junction permeability

Question: Which “reduction of inflammatory mediated intestinal tight junction permeability” value does the source give for `CCCCC/C=C\C/C=C\C/C=C\CCCCC(=O)O` [GLA, gamma linolenic acid] here?
Answer: effectively reduce
